The text below walks through data of patent publication US20260209215A1, “GLYCINE DERIVATIVES WITH P2X4 RECEPTOR-BLOCKING ACTIVITY AS DIAGNOSTICS AND FOR THE TREATMENT OF PAIN, INFLAMMATION, CANCER, AND OTHER P2X4 RECEPTOR-RELATED DISEASES” (RHEINISCHE-FRIEDRICH-WILHELMS-UNIVERSITÄT BONN, priority 2022, published 2026).

The target of the experiment is T1, P2X4 receptor (Homo sapiens, UniProt Q99571).
T1 construct: expressed in transfected cells; host or cells: 1321N1 astrocytoma cells, retroviral vector pQCXIN, G418 selection, monoclones
T1 sequence (Q99571 1-388): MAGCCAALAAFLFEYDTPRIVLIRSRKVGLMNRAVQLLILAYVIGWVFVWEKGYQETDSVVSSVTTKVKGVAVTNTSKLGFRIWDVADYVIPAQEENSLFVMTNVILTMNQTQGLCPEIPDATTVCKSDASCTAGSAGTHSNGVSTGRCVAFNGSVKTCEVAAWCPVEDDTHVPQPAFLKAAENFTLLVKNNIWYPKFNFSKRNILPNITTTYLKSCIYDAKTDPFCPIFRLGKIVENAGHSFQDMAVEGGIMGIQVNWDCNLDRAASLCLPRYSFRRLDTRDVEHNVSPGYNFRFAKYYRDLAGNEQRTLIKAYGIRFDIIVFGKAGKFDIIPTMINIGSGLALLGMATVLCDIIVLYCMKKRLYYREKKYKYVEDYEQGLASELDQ
In words: Measurement of Ca2+ influx in transfected 1321N1 astrocytoma cells (P2X4 inhibitory potency). It is filed as cell-based. The note with it: agonist-mediated Ca2+ influx, FLUO-4, 1321N1 astrocytoma cells; antagonists added 30 min before agonist. The text has this:
The rat, mouse, and human P2X4 DNA, respectively, were cloned into the retroviral vector pQCXIN. 1321N1 Astrocytoma cells were transfected with the DNA using a retroviral system as described previously. In brief, GP+envAM12 packaging cells were first transiently co-transfected with a retroviral vector to generate the retrovirus and with a vesicular stomatitis virus G protein (VSV-G) to pseudotype the virus and to increase their infection efficiency. The viruses containing the rat, mouse or human P2X4 receptor sequence were then used to create a stable astrocytoma cell line. P2X4 receptor-expressing cells were selected with G418 ([…]).
The selection of monoclones for rat and human P2X4 receptors was performed using the limited dilution method by plating the cells at very low cell densities (1 cell clone per well in 96-well plates). Cells were counted, and then several dilutions were made to obtain a concentration of […]. We subsequently added 100 µL of the diluted cell suspension into each well expecting to obtain on average 1 cell per well. After a few days the wells that contained single clones were labeled and transferred into 24 well plates. More than 20 clones were selected for each cell line and characterized in calcium influx assay.
Measurement of Ca^2+ influx in transfected 1321N1 astrocytoma cells
P2X receptor function was determined on the basis of agonist-mediated increases in cytosolic Ca^2+ concentration. The fluorescent Ca^2+chelating dye FLUO-4 was used as an indicator of the relative levels of intracellular Ca^2+ in a 96-well format using a fluorescence imaging plate reader (Novostar, BMG, Germany). Cells were grown to confluence in 96-well black-walled tissue culture plates and loaded with FLUO-4 AM ([…]) in Hank's balanced salt solution (HBSS, containing 10 mM HEPES, pH 7.3, and 1% Pluronic® F127) for 1 h at 23° C. After incubation, the loaded cells were washed with the same buffer to remove extracellular FLUO-4 AM. Compound solutions were prepared in HBSS (containing 20 mM HEPES, pH 7.3) or DMSO depending on their solubility. […] Fluorescence intensity was measured at 520 nm for 30 s at 0.4 s intervals. Buffer or test compounds were injected sequentially into separate wells using the automatic pipetting device. At least three independent experiments were performed in triplicate or duplicate. Antagonists were added 30 min before the addition of agonists. The assays were performed in a final volume of 200 μL. Compounds were tested at 7-8 different concentrations spanning three orders of magnitude of concentrations. Statistical significances were calculated using the unpaired two-tailed t-test.

The term IC50 denotes the midpoint of a concentration-inhibition curve. Low readings indicate higher potency, high ones lower potency.

Compound `Cc1ccc(-c2ccc(C(C)C)cn2)cc1NCC(=O)N1CCc2c(OCCOCCO)cccc21` [Example 113, 1-(4-(2-(2-hydroxyethoxy)ethoxy)indolin-1-yl)-2-((5-(5-isopropylpyridin-2-yl)-2-methylphenyl)amino) ethan-1-one] gave an IC50 of 40 to 69 nM.
The figure for `Cc1nsc(-c2cc(NCC(=O)N3CCc4c3cc(Br)cc4[C@@](C)(O)CO)c(C)cc2Br)n1` (stereo in doubt) [Example 123, 2-((4-bromo-2-methyl-5-(3-methyl-1,2,4-thiadiazol-5-yl)phenyl)amino)-1-(6-bromo-4-(1,2-dihydroxypropan-2-yl)indolin-1-yl)ethan-1-one] is > 100 nM.
The figure for `Cc1ccc(-c2ccc(C)c(NCC(=O)N3CCc4c(OCC(C)(C)O)cccc43)c2)nc1` [Example 117, 1-(4-(2-hydroxy-2-methylpropoxy)indolin-1-yl)-2-((2-methyl-5-(5-methylpyridin-2-yl)phenyl)amino)ethan-1-one] is 40 to 69 nM.
`Cc1nsc(-c2ccc(C)c(NCC(=O)N3CCc4c(OCCCO)cccc43)c2)n1` [Example 16, 1-(4-(3-hydroxypropoxy)indolin-1-yl)-2-((2-methyl-5-(3-methyl-1,2,4-thiadiazol-5-yl)phenyl)amino) ethan-1-one] registered an IC50 of 0.1 to 19 nM.
Regarding `Cc1ccc(-c2nc(C(F)F)ns2)cc1NCC(=O)N1CCc2c1cccc2C(C)(C)O` [Example 40, 2-((5-(3-(difluoromethyl)-1,2,4-thiadiazol-5-yl)-2-methylphenyl)amino)-1-(4-(2-hydroxypropan-2-yl)indolin-1-yl) ethan-1-one], the IC50 was in the range of 20 to 39 nM.
The figure for `Cc1nsc(-c2ccc(C)c(NCC(=O)N3CCc4c3cccc4N3C(=O)CC(N)C3=O)c2)n1` (centres unmarked) [Example 80, 3-amino-1-(1-((2-methyl-5-(3-methyl-1,2,4-thiadiazol-5-yl)phenyl)glycyl)indolin-4-yl) pyrrolidine-2,5-dione] is 0.1 to 19 nM; for `Cc1ccc(-c2nc(C3CC3)no2)cc1NCC(=O)N1CCc2c(OCC(C)(C)O)cccc21` [Example 50, 2-((5-(3-cyclopropyl-1,2,4-oxadiazol-5-yl)-2-methylphenyl)amino)-1-(4-(2-hydroxy-2-methylpropoxy)-indolin-1-yl)ethan-1-on] it is 40 to 69 nM; for `Cc1nsc(-c2ccc(C)c(NCC(=O)c3cn4c5c(cccc35)C(=O)NCC4)c2)n1` [Example 99, 7-((2-methyl-5-(3-methyl-1,2,4-thiadiazol-5-yl)phenyl)glycyl)-3,4-dihydro-[1,4]diazepino[6,7,1-hi] indol-1(2H)-one] it is 20 to 39 nM.
With `Cc1nsc(-c2ccc(C)c(NCC(=O)N3CCc4c(CS(C)(=N)=O)cccc43)c2)n1` (centres unmarked) [Example 69, imino(methyl)((1-((2-methyl-5-(3-methyl-1,2,4-thiadiazol-5-yl)phenyl)glycyl)indolin-4-yl)methyl)sulfanone], the IC50 is > 100 nM.
Under `CCc1noc(-c2ccc(OC)c(NCC(=O)c3c[nH]c4cc(OC)ccc34)c2)n1` [Example 96, 2-((5-(3-ethyl-1,2,4-oxadiazol-5-yl)-2-methoxyphenyl)amino)-1-(6-methoxy-1H-indol-3-yl)ethan-1-one] stands 0.1 to 19 nM; under `Cc1ccc(-c2ccc(F)c(NCC(=O)N3CCc4c(OCC(C)(C)O)cccc43)c2)o1` [Example 43, 2-((2-fluoro-5-(5-methylfuran-2-yl)phenyl)amino)-1-(4-(2-hydroxy-2-methylpropoxy)-indolin-1-yl)ethan-1-one], 20 to 39 nM; under `COc1ccc(-c2ccc(C)cn2)cc1NCC(=O)N1CCc2cc(F)c(F)cc21` [Example 118, 1-(5,6-difluoroindolin-1-yl)-2-((2-methoxy-5-(5-methylpyridin-2-yl)phenyl)amino)ethan-1-one], 40 to 69 nM.
The figure for `Cc1nsc(-c2ccc(C)c(NCC(=O)N3CCc4c(N5CCC(O)C5)cccc43)c2)n1` (centres unmarked) [Example 68, 1-(4-(3-hydroxypyrrolidin-1-yl)indolin-1-yl)-2-((2-methyl-5-(3-methyl-1,2,4-thiadiazol-5-yl)phenyl)amino)ethan-1-one] is 20 to 39 nM; for `Cc1nsc(-c2ccc(C)c(NCC(=O)c3cn4c5c(cccc35)CCC4)c2)n1` [Example 103, 1-(5,6-dihydro-4H-pyrrolo[3,2,1-ij]quinolin-1-yl)-2-((2-methyl-5-(3-methyl-1,2,4-thiadiazol-5-yl)phenyl)amino)ethan-1-one] it is 20 to 39 nM; for `Cc1nsc(-c2ccc(C)c(NCC(=O)N3CCc4c3cccc4C(C)(F)CO)c2)n1` (centres unmarked) [Example 63, 1-(4-(2-fluoro-1-hydroxypropan-2-yl)indolin-1-yl)-2-((2-methyl-5-(3-methyl-1,2,4-thiadiazol-5-yl)phenyl)amino)ethan-1-one] it is 0.1 to 19 nM.
Under `COc1cccc2c1CCN2C(=O)CNc1cc(-c2nc(C)ns2)cc(F)c1OC` [Example 8, 2-((3-fluoro-2-methoxy-5-(3-methyl-1,2,4-thiadiazol-5-yl)phenyl)amino)-1-(4-methoxyindolin-1-yl) ethan-1-one] stands 70 to 99 nM; under `COc1ccc(-c2nc(C)ns2)cc1NCC(=O)c1c[nH]c2c3c(ccc12)CCC3` [Example 104, 2-((2-methoxy-5-(3-methyl-1,2,4-thiadiazol-5-yl)phenyl)amino)-1-(1,6,7,8-tetrahydrocyclopenta[g]indol-3-yl)ethan-1-one], 20 to 39 nM; under `Cc1nsc(-c2ccc(C)c(NCC(=O)N3CCc4c3ccnc4C(C)O)c2)n1` (centres unmarked) [Example 92, 1-(4-(1-hydroxyethyl)-2,3-dihydro-1H-pyrrolo[3,2-c]pyridin-1-yl)-2-((2-methyl-5-(3-methyl-1,2,4-thiadiazol-5-yl)phenyl)amino)ethan-1-one], > 100 nM.
With `O=C(CNc1cccc(-c2ccccn2)c1)c1c[nH]c2cc(F)c(F)cc12` [Example 122, 1-(5,6-difluoro-1H-indol-3-yl)-2-((3-(pyridin-2-yl)phenyl)amino)ethan-1-one], the IC50 is > 100 nM.
Regarding `Cc1noc(-c2ccc(C)c(NCC(=O)N3CCc4c(OCCC(C)(C)O)cccc43)c2)n1` [Example 47, 1-(4-(3-hydroxy-3-methylbutoxy)indolin-1-yl)-2-((2-methyl-5-(3-methyl-1,2,4-oxadiazol-5-yl)phenyl)amino)ethan-1-one], the IC50 fell in the range of 20 to 39 nM.
Under `Cc1nsc(-c2ccc(C)c(NCC(=O)N3CCc4c3cccc4[C@@](C)(O)CO)c2)n1` [Example 64, 1-(4-(1,2-dihydroxypropan-2-yl)indolin-1-yl)-2-((2-methyl-5-(3-methyl-1,2,4-thiadiazol-5-yl)phenyl)amino)ethan-1-one] stands 0.1 to 19 nM; under `CCc1nsc(-c2ccc(C)c(NCC(=O)N3CCc4c3cccc4-n3ccnc3)c2)n1` [Example 35, 1-(4-(1H-imidazol-1-yl)indolin-1-yl)-2-((5-(3-ethyl-1,2,4-thiadiazol-5-yl)-2-methyl-phenyl)amino)ethan-1-one], 20 to 39 nM.
`COc1nccc2c(C(=O)CNc3cc(-c4nc(C)ns4)ccc3C)c[nH]c12` [Example 110, 1-(7-methoxy-1H-pyrrolo[2,3-c]pyridin-3-yl)-2-((2-methyl-5-(3-methyl-1,2,4-thiadiazol-5-yl)phenyl)amino) ethan-1-one] displayed an IC50 of 20 to 39 nM.
